Columns and labels:
P-gp = P-gp (Homo sapiens, UniProt P08183); conditions: in vitro; cited from earlier work
[1] = all investigated species including man; cited from earlier work
CYP1A2 = conditions: in vitro; cited from earlier work
nine CYP isoforms [2] = conditions: in vitro; cited from earlier work
[3] = target: T1, organic anion transporter (OAT)3 (Homo sapiens, UniProt Q8TCC7); conditions: in vitro; cited from earlier work
T1 sequence (Q8TCC7 1-542): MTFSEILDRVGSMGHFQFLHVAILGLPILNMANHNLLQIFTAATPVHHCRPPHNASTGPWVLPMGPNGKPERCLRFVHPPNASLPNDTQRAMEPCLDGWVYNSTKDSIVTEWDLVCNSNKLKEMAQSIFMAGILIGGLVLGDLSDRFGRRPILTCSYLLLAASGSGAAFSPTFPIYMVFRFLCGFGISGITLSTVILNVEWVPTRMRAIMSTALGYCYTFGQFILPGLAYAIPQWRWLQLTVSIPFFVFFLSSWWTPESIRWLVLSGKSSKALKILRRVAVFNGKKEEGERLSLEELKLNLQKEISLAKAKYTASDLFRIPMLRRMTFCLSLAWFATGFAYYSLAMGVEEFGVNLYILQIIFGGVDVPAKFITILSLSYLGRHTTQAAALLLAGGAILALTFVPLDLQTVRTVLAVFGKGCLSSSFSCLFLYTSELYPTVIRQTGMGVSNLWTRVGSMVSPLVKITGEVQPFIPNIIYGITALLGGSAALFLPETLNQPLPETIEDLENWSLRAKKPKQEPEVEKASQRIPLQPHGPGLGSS

nine CYP isoforms [4] = assay: in vitro CYP inhibition; format: in vitro ADME; conditions: rank order and mechanistic static assessment
P-glycoprotein (P-gp) = P-glycoprotein (P-gp) (Homo sapiens, UniProt P08183); conditions: cited from earlier work
[5] = transgenic mouse carcinogenicity study; format: in vivo, 001178-T (hemizygous) RasH 2 mice; conditions: male and female RasH 2 mice, up to 500 mg/kg/dose BID, at least 26 weeks
BCRP = target: T2, BCRP (Homo sapiens, UniProt Q9UNQ0); conditions: in vitro; cited from earlier work
T2 sequence (Q9UNQ0 1-655): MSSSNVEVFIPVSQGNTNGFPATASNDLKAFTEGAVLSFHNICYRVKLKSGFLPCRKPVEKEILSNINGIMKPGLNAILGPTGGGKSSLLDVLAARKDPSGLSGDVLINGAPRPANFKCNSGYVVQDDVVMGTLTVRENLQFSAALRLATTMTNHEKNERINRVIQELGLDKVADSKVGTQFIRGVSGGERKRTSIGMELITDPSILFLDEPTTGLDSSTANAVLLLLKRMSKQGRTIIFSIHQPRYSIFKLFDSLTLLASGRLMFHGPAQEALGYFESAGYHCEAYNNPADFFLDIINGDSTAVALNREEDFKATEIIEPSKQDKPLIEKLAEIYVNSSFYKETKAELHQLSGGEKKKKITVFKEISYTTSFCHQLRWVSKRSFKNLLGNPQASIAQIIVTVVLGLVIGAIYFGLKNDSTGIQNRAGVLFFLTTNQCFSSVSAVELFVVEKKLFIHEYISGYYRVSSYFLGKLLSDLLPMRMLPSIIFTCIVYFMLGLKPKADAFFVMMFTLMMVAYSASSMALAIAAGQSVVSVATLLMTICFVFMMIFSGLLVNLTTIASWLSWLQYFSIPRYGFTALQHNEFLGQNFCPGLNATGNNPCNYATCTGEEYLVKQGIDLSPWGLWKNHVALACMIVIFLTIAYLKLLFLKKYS

[6] = target: T3, organic anion-transporting polypeptide (OATP)1B1 (Homo sapiens, UniProt Q9Y6L6); conditions: in vitro; cited from earlier work
T3 sequence (Q9Y6L6 1-691): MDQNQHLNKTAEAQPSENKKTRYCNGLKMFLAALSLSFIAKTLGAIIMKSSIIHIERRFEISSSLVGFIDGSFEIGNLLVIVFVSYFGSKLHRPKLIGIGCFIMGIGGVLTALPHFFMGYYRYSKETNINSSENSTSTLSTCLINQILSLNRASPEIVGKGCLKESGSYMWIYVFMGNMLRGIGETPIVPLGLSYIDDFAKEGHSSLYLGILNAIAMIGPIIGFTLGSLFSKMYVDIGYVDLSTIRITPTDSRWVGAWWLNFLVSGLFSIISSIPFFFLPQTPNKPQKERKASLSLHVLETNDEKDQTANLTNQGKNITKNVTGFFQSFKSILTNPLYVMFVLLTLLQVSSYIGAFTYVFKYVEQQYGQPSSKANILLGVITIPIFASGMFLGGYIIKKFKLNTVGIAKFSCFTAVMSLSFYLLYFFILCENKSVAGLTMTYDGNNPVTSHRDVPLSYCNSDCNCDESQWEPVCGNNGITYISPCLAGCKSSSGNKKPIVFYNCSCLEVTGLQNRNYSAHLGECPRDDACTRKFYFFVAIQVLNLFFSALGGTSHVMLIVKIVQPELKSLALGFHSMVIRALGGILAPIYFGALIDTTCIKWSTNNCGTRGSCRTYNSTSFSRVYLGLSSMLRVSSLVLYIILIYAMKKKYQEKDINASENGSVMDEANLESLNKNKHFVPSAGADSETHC

Sequence of P-glycoprotein (P-gp) (P08183 whole entry): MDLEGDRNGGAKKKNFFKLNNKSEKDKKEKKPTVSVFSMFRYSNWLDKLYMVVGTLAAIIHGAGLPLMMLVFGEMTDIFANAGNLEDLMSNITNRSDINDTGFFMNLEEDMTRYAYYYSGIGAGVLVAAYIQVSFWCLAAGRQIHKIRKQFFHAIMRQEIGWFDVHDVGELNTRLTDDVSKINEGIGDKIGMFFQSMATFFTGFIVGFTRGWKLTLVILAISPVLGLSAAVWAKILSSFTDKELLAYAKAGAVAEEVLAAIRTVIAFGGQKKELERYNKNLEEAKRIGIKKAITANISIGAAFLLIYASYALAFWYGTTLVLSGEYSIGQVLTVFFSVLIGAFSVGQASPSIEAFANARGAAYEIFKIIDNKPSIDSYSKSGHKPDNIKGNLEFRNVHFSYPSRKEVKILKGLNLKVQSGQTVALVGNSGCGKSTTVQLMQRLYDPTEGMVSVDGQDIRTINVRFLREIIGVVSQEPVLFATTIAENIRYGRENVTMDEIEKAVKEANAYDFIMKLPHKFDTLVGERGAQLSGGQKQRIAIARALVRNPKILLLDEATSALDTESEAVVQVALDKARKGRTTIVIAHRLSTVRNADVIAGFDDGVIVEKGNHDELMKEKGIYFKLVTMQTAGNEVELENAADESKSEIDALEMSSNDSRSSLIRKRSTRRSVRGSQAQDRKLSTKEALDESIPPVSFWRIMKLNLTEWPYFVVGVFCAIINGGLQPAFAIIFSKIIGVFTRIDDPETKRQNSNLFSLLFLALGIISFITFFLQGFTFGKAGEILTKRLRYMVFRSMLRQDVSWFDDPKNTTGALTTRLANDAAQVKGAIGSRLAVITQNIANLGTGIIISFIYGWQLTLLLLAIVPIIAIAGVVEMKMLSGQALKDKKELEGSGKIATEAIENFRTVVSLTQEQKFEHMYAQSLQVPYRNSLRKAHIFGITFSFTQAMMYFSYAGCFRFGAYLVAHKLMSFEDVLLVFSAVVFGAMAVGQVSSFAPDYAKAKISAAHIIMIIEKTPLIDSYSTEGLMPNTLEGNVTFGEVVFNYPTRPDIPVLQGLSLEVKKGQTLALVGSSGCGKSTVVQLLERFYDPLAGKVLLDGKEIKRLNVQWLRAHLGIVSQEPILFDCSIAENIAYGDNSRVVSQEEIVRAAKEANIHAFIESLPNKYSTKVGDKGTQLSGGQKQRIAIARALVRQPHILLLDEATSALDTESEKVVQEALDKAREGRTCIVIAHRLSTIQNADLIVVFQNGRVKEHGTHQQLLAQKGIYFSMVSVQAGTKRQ
Sequence of P-gp (P08183 whole entry): as above

Compound: CC(O)c1cc(C(=O)N[C@@H](C)Cn2ccc(-c3ccc(C#N)c(Cl)c3)n2)[nH]n1 (stereo partly shown) [Darolutamide]
- inhibition of P-gp-mediated transport (P-gp): observed
- major metabolites observed in plasma [1]: Only one major metabolite, keto-darolutamide
- induction of CYP1A2 activity (CYP1A2): no relevant induction
- inhibition of enzymatic activity of nine CYP isoforms (nine CYP isoforms [2]): not inhibited or slightly inhibited
- inhibition of OAT3-mediated transport [3]: observed
- risk of clinically relevant DDIs via CYP inhibition (nine CYP isoforms [4]): very low
- substrate for P-gp (P-glycoprotein (P-gp)): substrate
- carcinogenic potential [5]: no carcinogenic potential
- inhibition of BCRP-mediated transport (BCRP): observed
- inhibition of OATP1B1-mediated transport [6]: observed
